{"source": "ChEMBL document CHEMBL1136053", "about": "“Development of new hydrogen-bond descriptors and their application to comparative molecular field analyses” (J Med Chem, 2002)", "note": "Non-standard residues stand in square brackets, D forms with d. Residues, ends and D or L forms follow the SMILES beside them. ξ: configuration not given here. *: point of attachment. ξF = NC(Cc1ccccc1)C(=O)O; Cbz = O=C(OCc1ccccc1)*; NHOH = ON*"}
{"target": "T1, Thermolysin (Bacillus thermoproteolyticus, UniProt P00800)", "T1 sequence (P00800 whole entry)": "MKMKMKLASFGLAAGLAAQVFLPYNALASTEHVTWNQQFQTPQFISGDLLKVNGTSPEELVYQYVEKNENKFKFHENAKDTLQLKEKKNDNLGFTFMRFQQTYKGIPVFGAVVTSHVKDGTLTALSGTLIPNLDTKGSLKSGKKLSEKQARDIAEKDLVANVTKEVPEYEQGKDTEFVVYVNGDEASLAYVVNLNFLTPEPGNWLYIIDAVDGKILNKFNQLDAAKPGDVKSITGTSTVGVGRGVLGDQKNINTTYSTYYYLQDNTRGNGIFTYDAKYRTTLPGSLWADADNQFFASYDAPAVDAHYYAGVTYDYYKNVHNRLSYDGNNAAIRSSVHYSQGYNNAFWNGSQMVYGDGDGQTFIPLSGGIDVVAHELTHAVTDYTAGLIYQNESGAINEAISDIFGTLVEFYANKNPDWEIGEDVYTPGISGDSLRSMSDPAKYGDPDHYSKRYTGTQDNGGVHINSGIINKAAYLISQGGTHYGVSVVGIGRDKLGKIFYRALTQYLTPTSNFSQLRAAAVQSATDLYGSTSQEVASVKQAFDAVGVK", "assay": "pKi value expresses binding affinity against thermolysin pKi = -logKi (where Ki is in mol/L)", "units": {"Ki": "µM"}}
{"smiles": "C[C@H](NC(=O)[C@H](C)NP(=O)(O)O)C(=O)O", "Ki": 87.1}
{"smiles": "C[C@H](C(=O)NO)C(=O)N[C@@H](C)C(=O)NCC(N)=O", "Ki": 1100}
{"smiles": "CC(C)C[C@H](NC(=O)CNC(=O)OCc1ccccc1)C(N)=O", "Ki": 20900}
{"smiles": "C[C@H](NC(=O)[C@H](Cc1ccccc1)NS(=O)(=O)O)C(=O)NCC(N)=O", "Ki": 4270}
{"smiles": "C[C@H](NC(=O)[C@H](Cc1ccccc1)NP(=O)(O)S)C(=O)NCC(N)=O", "note": "(some centres not stated)", "Ki": 6.92}
{"smiles": "C[C@H](NC(=O)[C@H](Cc1ccccc1)C(=O)NO)C(=O)NCC(=O)O", "Ki": 0.661}
{"smiles": "CC(C)C[C@H](C(=O)NO)C(=O)N[C@@H](C)C(=O)NCC(N)=O", "Ki": 0.479}
{"smiles": "C[C@H](NC(=O)[C@H](Cc1ccccc1)NC(=O)CO)C(=O)NCC(N)=O", "Ki": 2880}
{"smiles": "C[C@H](NC(=O)[C@H](Cc1ccccc1)C(=O)NO)C(=O)NCC(N)=O", "Ki": 0.661}
{"smiles": "CC(C)C[C@H](NC(=O)CNC(=O)CNC(=O)OCc1ccccc1)C(=O)NO", "Ki": 38.9}
{"smiles": "CC(=O)CC(=O)N[C@@H](Cc1ccccc1)C(=O)N[C@@H](C)C(=O)NCC(N)=O", "Ki": 3090}
{"smiles": "C[C@H](NC(=O)[C@@H](CS)Cc1ccccc1)C(=O)NCC(N)=O", "Ki": 0.759}
{"smiles": "C[C@H](NC(=O)[C@H](Cc1ccccc1)C(=O)O)C(=O)NCC(N)=O", "Ki": 417}
{"smiles": "CC(C)C[C@@H](C(=O)N[C@@H](C)C(=O)NCC(N)=O)N(O)C=O", "Ki": 3390}
{"smiles": "CC(C)C[C@H](NC(=O)CNC(=O)OCc1ccccc1)C(=O)NO", "Ki": 12.9}
{"smiles": "CC[C@H](C)[C@H](NP(=O)(O)O)C(=O)N[C@@H](C)C(=O)O", "Ki": 0.363}
{"smiles": "O=C(NC(Cc1ccccc1)C(=O)O)OCc1ccccc1", "note": "(configuration not stated)", "Ki": 513}
{"smiles": "CC(=O)N(O)[C@@H](CC(C)C)C(=O)N[C@@H](C)C(=O)NCC(N)=O", "Ki": 3390}
{"smiles": "CC(C)CC(OP(=O)(O)CNC(=O)OCc1ccccc1)C(=O)NC(C)C(=O)O", "note": "(configuration not stated)", "Ki": 12.9}
{"smiles": "CC(C)CC(OP(=O)(O)C(Cc1ccccc1)NC(=O)OCc1ccccc1)C(=O)NC(C)C(=O)O", "note": "(configuration not stated)", "Ki": 0.0447}
{"smiles": "CC(C)CC(NC(CCc1cccc(CN)c1)C(=O)O)C(=O)NC(Cc1ccccc1)C(=O)O", "note": "(configuration not stated)", "Ki": 1.7}
{"smiles": "CC(C)CC(NC(=O)CNC(=O)OCc1ccccc1)C(=O)N(C)O", "note": "(configuration not stated)", "Ki": 2240}
{"smiles": "CC(C)CC(OP(=O)(O)C(C)NC(=O)OCc1ccccc1)C(=O)NC(C)C(=O)O", "note": "(configuration not stated)", "Ki": 1.82}
{"smiles": "CC(C)CC(NC(CCNC(=O)C(Cc1ccccc1)NC(=O)OCc1ccccc1)C(=O)O)C(=O)NC(Cc1ccccc1)C(=O)O", "note": "(configuration not stated)", "Ki": 0.219}
{"smiles": "CC(C)CC(NC(C)C(=O)O)C(=O)NC(Cc1ccccc1)C(=O)O", "note": "(configuration not stated)", "Ki": 2.82}
{"smiles": "CC(C)CC(NC(CCc1ccccc1)C(=O)O)C(=O)NC(Cc1ccccc1)C(=O)O", "note": "(configuration not stated)", "Ki": 0.603}
{"smiles": "CC(C)CC(NP(=O)(O)CNC(=O)OCc1ccccc1)C(N)=O", "note": "(configuration not stated)", "Ki": 0.759}
{"smiles": "CC(C)C[C@@H](NC(=O)CNC(=O)OCc1ccccc1)C(=O)NO", "Ki": 47.9}
{"smiles": "CCCCCCP(=O)(O)CC(CC(C)C)C(=O)NC(Cc1c[nH]c2ccccc12)C(=O)NC", "note": "(configuration not stated)", "Ki": 0.0525}
{"smiles": "CC(C)CC(CP(=O)(O)CNC(=O)OCc1ccccc1)C(=O)NCC(=O)O", "note": "(configuration not stated)", "Ki": 0.302}
{"smiles": "CC(C)CC(NP(=O)(O)CNC(=O)OCc1ccccc1)C(=O)NC(Cc1ccccc1)C(=O)O", "note": "(configuration not stated)", "Ki": 0.0759}
{"smiles": "CC(C)CC(OP(=O)(O)[C@@H](Cc1ccccc1)NC(=O)OCc1ccccc1)C(=O)NC(C)C(=O)O", "note": "(some centres not stated)", "Ki": 30.2}
{"smiles": "CC(C)CC(OP(=O)(O)CNC(=O)OCc1ccccc1)C(N)=O", "note": "(configuration not stated)", "Ki": 661}
{"smiles": "CC(C)C[C@H](NC(CCc1ccccc1)C(=O)O)C(=O)N[C@@H](Cc1c[nH]c2ccccc12)C(=O)O", "note": "(some centres not stated)", "Ki": 0.0339}
{"smiles": "CC(C)CC(NP(=O)(O)[C@@H](Cc1ccccc1)NC(=O)OCc1ccccc1)C(=O)NC(C)C(=O)O", "note": "(some centres not stated)", "Ki": 0.479}
{"smiles": "O=C(O)CC(=O)NC(CS)Cc1ccccc1", "note": "(configuration not stated)", "Ki": 2.29}
{"smiles": "CC(C)CC(OP(=O)(O)CNC(=O)OCc1ccccc1)C(=O)NC(Cc1ccccc1)C(=O)O", "note": "(configuration not stated)", "Ki": 53.7}
{"smiles": "CCCCCCP(=O)(O)NC(CC(C)C)C(=O)NC(Cc1c[nH]c2ccccc12)C(=O)NC", "note": "(configuration not stated)", "Ki": 0.00151}
{"smiles": "CC(C)CC(OP(=O)(O)[C@@H](CC(C)C)NC(=O)OCc1ccccc1)C(=O)NC(C)C(=O)O", "note": "(some centres not stated)", "Ki": 41.7}
{"smiles": "CC(C)CC(CP(=O)(O)CNC(=O)OCc1ccccc1)C(=O)NC(C)C(=O)O", "note": "(configuration not stated)", "Ki": 0.0186}
{"smiles": "CC(C)CC(OP(=O)(O)[C@@H](C)NC(=O)OCc1ccccc1)C(=O)NC(C)C(=O)O", "note": "(some centres not stated)", "Ki": 24}
{"smiles": "CC(C)CC(NP(=O)(O)O)C(N)=O", "note": "(configuration not stated)", "Ki": 79.4}
{"smiles": "CC(NC(=O)C(Cc1ccccc1)NP(=O)(O)O)C(=O)NCC(N)=O", "note": "(configuration not stated)", "Ki": 2.57}
{"smiles": "CC(C)CC(NC(CCNC(=O)C(C)NC(=O)OCc1ccccc1)C(=O)O)C(=O)NC(Cc1ccccc1)C(=O)O", "note": "(configuration not stated)", "Ki": 0.851}
{"smiles": "CC(C)CC(OP(=O)(O)C(CC(C)C)NC(=O)OCc1ccccc1)C(=O)NC(C)C(=O)O", "note": "(configuration not stated)", "Ki": 0.676}
{"smiles": "CC(C)CC(NP(=O)(O)OC1OC(C)C(O)C(O)C1O)C(=O)NC(Cc1c[nH]c2ccccc12)C(=O)O", "note": "(configuration not stated)", "Ki": 0.0282}
{"smiles": "CCCCCCP(=O)(O)OC(CC(C)C)C(=O)NC(Cc1c[nH]c2ccccc12)C(=O)NC", "note": "(configuration not stated)", "Ki": 1.45}
{"smiles": "CC(C)CC(NC(CCNC(=O)C(Cc1ccccc1)NC(=O)OCc1ccccc1)C(=O)O)C(=O)NC(Cc1c[nH]c2ccccc12)C(=O)O", "note": "(configuration not stated)", "Ki": 0.011}
{"smiles": "CC(C)CC(CP(=O)(O)CNC(=O)OCc1ccccc1)C(=O)NC(CC(C)C)C(=O)O", "note": "(configuration not stated)", "Ki": 0.182}
{"smiles": "O=C(O)C(Cc1ccccc1)NP(=O)(O)O", "note": "(configuration not stated)", "Ki": 72.4}
{"smiles": "CC(C)CC(NP(=O)(O)O)C(=O)NC(Cc1ccccc1)C(=O)O", "note": "(configuration not stated)", "Ki": 0.0191}
{"smiles": "CC(C)CC(NC(=O)NNC(=O)OCc1ccccc1)C(=O)NO", "note": "(configuration not stated)", "Ki": 2.69}
{"smiles": "CC(C)CC(N)C(=O)NO", "note": "(configuration not stated)", "Ki": 191}
{"smiles": "CC(C)C[C@@H](NC(=O)CNC(=O)CNC(=O)OCc1ccccc1)C(=O)NO", "pKi": 3.6}
{"smiles": "CCOC(=O)C(Cc1ccccc1)C(=O)NO", "note": "(configuration not stated)", "Ki": 20}
{"smiles": "CC(C)CC(NC(=O)C(CC(C)C)OP(=O)(O)CNC(=O)OCc1ccccc1)C(=O)O", "note": "(configuration not stated)", "Ki": 8.91}
{"smiles": "CC(C)CC(OP(=O)(O)CNC(=O)OCc1ccccc1)C(=O)NCC(=O)O", "note": "(configuration not stated)", "Ki": 229}
{"smiles": "CC(C)CC(NP(=O)(O)CNC(=O)OCc1ccccc1)C(=O)NCC(=O)O", "note": "(configuration not stated)", "Ki": 0.269}
{"smiles": "CCCCC(NC(CC(C)C)C(=O)NC(Cc1ccccc1)C(=O)O)C(=O)O", "note": "(configuration not stated)", "Ki": 3800}
{"smiles": "CC(C)CC(NC(=O)C(CC(C)C)NP(=O)(O)CNC(=O)OCc1ccccc1)C(=O)O", "note": "(configuration not stated)", "Ki": 0.00912}
{"smiles": "CC(C)CC(NP(=O)(O)CNC(=O)OCc1ccccc1)C(=O)NC(C)C(=O)O", "note": "(configuration not stated)", "Ki": 0.0166}
{"smiles": "O=C(CCc1ccccc1)NC(Cc1ccccc1)C(=O)O", "note": "(configuration not stated)", "Ki": 1620}
{"smiles": "CC(C)CC(NC(CCNC(=O)CNC(=O)OCc1ccccc1)C(=O)O)C(=O)NC(Cc1ccccc1)C(=O)O", "note": "(configuration not stated)", "Ki": 0.407}
{"smiles": "CC(C)CC(NP(=O)(O)C(Cc1ccccc1)NC(=O)OCc1ccccc1)C(=O)NC(C)C(=O)O", "note": "(configuration not stated)", "Ki": "6.76e-05"}
{"smiles": "CC(C)CC(CP(=O)(O)CNC(=O)OCc1ccccc1)C(=O)NC(Cc1ccccc1)C(=O)O", "note": "(configuration not stated)", "Ki": 0.0661}
{"smiles": "CC(C)CC(CP(=O)(O)CNC(=O)OCc1ccccc1)C(N)=O", "note": "(configuration not stated)", "Ki": 1.41}
{"smiles": "CC(C)CC(NC(=O)NNC(=O)OCc1ccccc1)C(N)=O", "note": "(configuration not stated)", "Ki": 380}
{"smiles": "CC(NC(=O)C(Cc1ccccc1)C(=O)NO)C(=O)NCC(=O)Nc1ccc([N+](=O)[O-])cc1", "note": "(configuration not stated)", "Ki": 0.427}
{"smiles": "NC(=O)CNC(=O)C(Cc1ccc(O)cc1)NC(=O)OCc1ccccc1", "note": "(configuration not stated)", "Ki": 219}
{"smiles": "O=C(CNC(=O)CNC(=O)OCc1ccccc1)NO", "note": "(Cbz-Gly-Gly-{NHOH})", "Ki": 933}
{"smiles": "CC(C)C[C@H](NC(=O)OCc1ccccc1)C(=O)NCC(N)=O", "note": "(Cbz-Leu-Gly-NH2)", "Ki": 3090}
{"smiles": "NC(=O)CNC(=O)C(Cc1ccccc1)NC(=O)OCc1ccccc1", "note": "(configuration not stated) (Cbz-[ξF]-Gly-NH2)", "Ki": 347}
